Reference: ChEMBL document CHEMBL6103537 (J Med Chem, 2025)
The source made the active and inactive calls. No cut-off for these calls is given here.

Assays:
[1] = biological target: T1, Protein cereblon/Signal transducer and activator of transcription 6 (Homo sapiens, UniProt P42226+Q96SW2); assay: PROTAC activity at STAT6/CRBN in human MV4-11 cells assessed as reduction in STAT6 level incubated for 12 hrs by Western blot analysis; format: cell-based
Target sequence in this assay (P42226 whole entry): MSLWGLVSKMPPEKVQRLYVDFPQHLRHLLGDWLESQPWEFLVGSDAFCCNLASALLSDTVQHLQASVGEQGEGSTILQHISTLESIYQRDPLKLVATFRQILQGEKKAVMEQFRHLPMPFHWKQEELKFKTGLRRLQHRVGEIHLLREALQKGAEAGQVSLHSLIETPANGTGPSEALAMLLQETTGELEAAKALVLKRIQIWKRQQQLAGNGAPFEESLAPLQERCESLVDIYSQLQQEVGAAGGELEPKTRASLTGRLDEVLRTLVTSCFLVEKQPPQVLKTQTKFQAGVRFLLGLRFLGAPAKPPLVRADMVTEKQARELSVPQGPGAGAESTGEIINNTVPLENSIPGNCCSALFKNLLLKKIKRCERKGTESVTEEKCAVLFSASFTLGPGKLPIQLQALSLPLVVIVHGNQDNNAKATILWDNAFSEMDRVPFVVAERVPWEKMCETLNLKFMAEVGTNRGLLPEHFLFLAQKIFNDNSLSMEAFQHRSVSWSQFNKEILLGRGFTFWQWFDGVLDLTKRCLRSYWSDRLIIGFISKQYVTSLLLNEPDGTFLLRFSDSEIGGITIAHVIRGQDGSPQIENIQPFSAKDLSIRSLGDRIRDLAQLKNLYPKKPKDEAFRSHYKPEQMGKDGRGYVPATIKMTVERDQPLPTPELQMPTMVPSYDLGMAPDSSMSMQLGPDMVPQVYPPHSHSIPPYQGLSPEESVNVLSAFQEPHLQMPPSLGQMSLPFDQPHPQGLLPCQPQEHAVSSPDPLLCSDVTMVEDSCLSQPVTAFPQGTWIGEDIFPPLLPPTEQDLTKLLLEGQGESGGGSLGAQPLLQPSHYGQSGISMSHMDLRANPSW
Target sequence in this assay (Q96SW2 whole entry): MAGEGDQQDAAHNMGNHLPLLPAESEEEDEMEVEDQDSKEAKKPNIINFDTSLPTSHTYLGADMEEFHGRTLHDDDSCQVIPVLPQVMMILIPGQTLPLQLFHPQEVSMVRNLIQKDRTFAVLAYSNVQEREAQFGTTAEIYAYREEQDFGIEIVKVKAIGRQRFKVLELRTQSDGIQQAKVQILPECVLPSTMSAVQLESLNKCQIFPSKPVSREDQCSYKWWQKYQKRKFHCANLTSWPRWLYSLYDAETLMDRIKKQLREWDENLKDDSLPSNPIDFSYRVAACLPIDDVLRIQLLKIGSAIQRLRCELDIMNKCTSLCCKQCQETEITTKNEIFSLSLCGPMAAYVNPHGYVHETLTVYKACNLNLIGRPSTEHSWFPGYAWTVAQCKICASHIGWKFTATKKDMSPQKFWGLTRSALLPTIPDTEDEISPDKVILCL

[2] = biological target: Protein cereblon/Signal transducer and activator of transcription 5A/Signal transducer and activator of transcription 5B (Homo sapiens) (UniProt P42229+P51692+Q96SW2); assay: PROTAC activity at STAT5/CRBN in human MV4-11 cells assessed as reduction in STAT5 level at upto 10 uM incubated for 12 hrs by Western blot analysis; format: cell-based
Chain of Protein cereblon/Signal transducer and activator of transcription 5A/Signal transducer and activator of transcription 5B (Homo sapiens) (P42229 whole entry, looked up): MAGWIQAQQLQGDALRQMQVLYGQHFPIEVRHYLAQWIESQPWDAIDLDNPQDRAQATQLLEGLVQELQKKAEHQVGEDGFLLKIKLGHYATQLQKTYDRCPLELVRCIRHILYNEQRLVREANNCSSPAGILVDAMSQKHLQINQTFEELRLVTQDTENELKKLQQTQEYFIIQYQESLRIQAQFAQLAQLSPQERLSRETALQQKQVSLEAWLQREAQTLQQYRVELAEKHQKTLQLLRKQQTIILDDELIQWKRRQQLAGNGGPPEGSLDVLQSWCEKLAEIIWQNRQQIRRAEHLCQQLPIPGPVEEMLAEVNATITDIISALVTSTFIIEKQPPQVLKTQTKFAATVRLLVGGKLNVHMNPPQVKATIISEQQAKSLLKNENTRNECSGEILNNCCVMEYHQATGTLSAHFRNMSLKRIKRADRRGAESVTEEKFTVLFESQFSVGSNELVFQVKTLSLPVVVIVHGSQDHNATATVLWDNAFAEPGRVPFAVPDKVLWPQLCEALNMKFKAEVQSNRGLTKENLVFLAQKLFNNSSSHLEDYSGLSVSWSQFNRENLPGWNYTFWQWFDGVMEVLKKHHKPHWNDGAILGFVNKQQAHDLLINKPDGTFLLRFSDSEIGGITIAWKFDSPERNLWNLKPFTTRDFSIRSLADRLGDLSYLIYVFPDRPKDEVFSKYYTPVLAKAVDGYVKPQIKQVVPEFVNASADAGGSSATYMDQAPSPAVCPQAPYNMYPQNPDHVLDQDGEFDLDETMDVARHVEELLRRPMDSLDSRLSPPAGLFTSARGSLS
Chain of Protein cereblon/Signal transducer and activator of transcription 5A/Signal transducer and activator of transcription 5B (Homo sapiens) (P51692 whole entry, looked up): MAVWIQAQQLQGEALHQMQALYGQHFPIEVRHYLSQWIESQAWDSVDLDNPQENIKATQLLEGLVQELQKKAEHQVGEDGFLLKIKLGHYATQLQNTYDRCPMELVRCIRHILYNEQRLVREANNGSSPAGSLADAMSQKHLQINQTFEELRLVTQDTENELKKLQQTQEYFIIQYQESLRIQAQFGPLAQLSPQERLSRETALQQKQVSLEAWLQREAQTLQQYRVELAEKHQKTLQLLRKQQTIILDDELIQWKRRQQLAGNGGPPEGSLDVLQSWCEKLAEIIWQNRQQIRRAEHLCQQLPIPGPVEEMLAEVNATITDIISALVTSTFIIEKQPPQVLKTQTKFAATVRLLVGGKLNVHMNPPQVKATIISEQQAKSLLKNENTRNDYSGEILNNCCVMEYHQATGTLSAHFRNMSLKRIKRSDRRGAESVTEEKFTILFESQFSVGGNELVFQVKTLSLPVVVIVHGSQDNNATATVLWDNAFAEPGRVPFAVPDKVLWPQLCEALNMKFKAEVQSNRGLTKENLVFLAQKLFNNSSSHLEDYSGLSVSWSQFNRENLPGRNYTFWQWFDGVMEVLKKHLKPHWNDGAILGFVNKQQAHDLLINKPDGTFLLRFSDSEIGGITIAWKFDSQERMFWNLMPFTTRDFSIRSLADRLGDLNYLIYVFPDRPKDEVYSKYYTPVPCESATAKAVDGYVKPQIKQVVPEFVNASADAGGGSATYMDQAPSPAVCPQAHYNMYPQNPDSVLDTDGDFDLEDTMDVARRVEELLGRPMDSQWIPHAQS
Chain of Protein cereblon/Signal transducer and activator of transcription 5A/Signal transducer and activator of transcription 5B (Homo sapiens) (Q96SW2 whole entry, looked up): as the sequence (Q96SW2 whole entry) above

[3] = biological target: Protein cereblon/Signal transducer and activator of transcription 2 (Homo sapiens) (UniProt Q96SW2+P52630); assay: PROTAC activity at STAT2/CRBN in human MV4-11 cells assessed as reduction in STAT2 level at 10 uM incubated for 12 hrs by Western blot analysis relative to control; format: cell-based
[4] = biological target: T1, Protein cereblon/Signal transducer and activator of transcription 6; assay: PROTAC activity at STAT6/CRBN in human PBMC cells assessed as reduction in STAT6 level incubated for 18 hrs by Western blot analysis; format: cell-based
Target sequence in this assay (P42226 whole entry): as the sequence (P42226 whole entry) above
Target sequence in this assay (Q96SW2 whole entry): as the sequence (Q96SW2 whole entry) above

[5] = biological target: Protein cereblon/Signal transducer and activator of transcription 1-alpha/beta (Homo sapiens) (UniProt P42224+Q96SW2); assay: PROTAC activity at STAT1/CRBN in human PBMC cells assessed as reduction in STAT1 level at 10 uM incubated for 18 hrs by Western blot analysis relative to control; format: cell-based
[6] = biological target: T1, Protein cereblon/Signal transducer and activator of transcription 6; assay: PROTAC activity at STAT6/CRBN in human L-1236 cells assessed as reduction in STAT6 level incubated for 24 hrs by Western blot analysis; format: cell-based; settings: dose 10.0 µM
Target sequence in this assay (P42226 2-847 limits assumed): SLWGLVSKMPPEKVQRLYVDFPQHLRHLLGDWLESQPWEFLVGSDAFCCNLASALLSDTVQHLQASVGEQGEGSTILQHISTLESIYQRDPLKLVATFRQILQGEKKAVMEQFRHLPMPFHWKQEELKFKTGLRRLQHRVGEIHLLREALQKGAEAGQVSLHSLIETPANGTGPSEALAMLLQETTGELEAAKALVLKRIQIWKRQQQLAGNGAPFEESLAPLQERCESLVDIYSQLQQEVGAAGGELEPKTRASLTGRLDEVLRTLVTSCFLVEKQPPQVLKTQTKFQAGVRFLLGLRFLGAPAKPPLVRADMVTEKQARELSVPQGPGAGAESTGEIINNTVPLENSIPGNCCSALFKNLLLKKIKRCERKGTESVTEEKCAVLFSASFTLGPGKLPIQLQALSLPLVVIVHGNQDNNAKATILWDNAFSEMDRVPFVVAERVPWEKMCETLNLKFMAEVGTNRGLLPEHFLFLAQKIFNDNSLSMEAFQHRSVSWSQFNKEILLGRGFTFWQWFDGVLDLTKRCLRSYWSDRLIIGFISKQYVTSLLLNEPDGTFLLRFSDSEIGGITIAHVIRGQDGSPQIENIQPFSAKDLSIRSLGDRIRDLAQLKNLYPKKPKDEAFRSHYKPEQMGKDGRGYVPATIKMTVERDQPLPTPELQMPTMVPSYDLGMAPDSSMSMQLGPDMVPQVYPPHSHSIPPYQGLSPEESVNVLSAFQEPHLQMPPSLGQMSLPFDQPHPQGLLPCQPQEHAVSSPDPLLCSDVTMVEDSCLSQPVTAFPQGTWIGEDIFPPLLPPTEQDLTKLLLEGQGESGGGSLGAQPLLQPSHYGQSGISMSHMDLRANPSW
Target sequence in this assay (Q96SW2 whole entry partner): as the sequence (Q96SW2 whole entry) above

[7] = biological target: Protein cereblon/Signal transducer and activator of transcription 4 (Homo sapiens) (UniProt Q96SW2+Q14765); assay: PROTAC activity at STAT4/CRBN in human L-1236 cells assessed as reduction in STAT4 level at 10 uM incubated for 24 hrs by Western blot analysis; format: cell-based
[8] = Downregulation of EPB41L1 level in human PBMC cells at 5 uM incubated for 18 hrs by Western blot analysis relative to control; format: functional
[9] = Downregulation of KRT1 level in human PBMC cells at 5 uM incubated for 18 hrs by Western blot analysis relative to control; format: functional
PBMC [10] = assay: Downregulation of STAT1 level in human PBMC cells at 5 uM incubated for 18 hrs by Western blot analysis relative to control; format: functional, cell-based
PBMC [11] = assay: Downregulation of STAT2 level in human PBMC cells at 5 uM incubated for 18 hrs by Western blot analysis relative to control; format: functional, cell-based
PBMC [12] = assay: Downregulation of STAT3 level in human PBMC cells at 5 uM incubated for 18 hrs by Western blot analysis relative to control; format: functional, cell-based
PBMC [13] = assay: Downregulation of STAT5 level in human PBMC cells at 5 uM incubated for 18 hrs by Western blot analysis relative to control; format: functional, cell-based
[14] = biological target: T1, Protein cereblon/Signal transducer and activator of transcription 6; assay: PROTAC activity at STAT6/CRBN in human MV4-11 cells assessed as reduction in STAT6 level at 2 uM measured upto 1200 mins in presence of […] by HiBiT bioluminescence assay; format: cell-based
Target sequence in this assay (P42226 2-847 limits assumed): as the sequence (P42226 2-847 limits assumed) above
Target sequence in this assay (Q96SW2 whole entry partner): as the sequence (Q96SW2 whole entry) above

[15] = biological target: Protein cereblon/Zinc finger protein Helios (Homo sapiens) (UniProt Q96SW2+Q9UKS7); assay: PROTAC activity at CRBN/IKZF2 in human Jurkat cells assessed as degradation of IKZF2 protein at 0.01 to 10 uM incubated for 20 hrs by Western blotting analysis; format: cell-based; settings: dose 0.01-10 µM
[16] = Metabolic stability in human liver microsome assessed as parent compound remaining measured at 15 mins in presence of NADPH by LC-MS/MS analysis; format: ADME; settings: liver microsomes, read-out: Stability
[17] = Metabolic stability in dog liver microsome assessed as parent compound remaining measured at 45 mins in presence of NADPH by LC-MS/MS analysis; format: ADME, Canis lupus familiaris; settings: liver microsomes, read-out: Stability
[18] = Metabolic stability in monkey liver microsome assessed as parent compound remaining measured at 15 mins in presence of NADPH by LC-MS/MS analysis; format: ADME, Macaca mulatta; settings: rhesus monkey, liver microsomes, read-out: Stability
[19] = Metabolic stability in rat liver microsome assessed as parent compound remaining measured at 45 mins in presence of NADPH by LC-MS/MS analysis; format: ADME; settings: liver microsomes, read-out: Stability
[20] = Metabolic stability in mouse liver microsome assessed as parent compound remaining measured at 5 mins in presence of NADPH by LC-MS/MS analysis; format: ADME; settings: liver microsomes, read-out: Stability
[21] = Metabolic stability in mouse liver microsome assessed as parent compound remaining measured at 30 mins in presence of NADPH by LC-MS/MS analysis; format: ADME; settings: liver microsomes, read-out: Stability
[22] = Metabolic stability in mouse liver microsome assessed as parent compound remaining measured at 45 mins in presence of NADPH by LC-MS/MS analysis; format: ADME; settings: liver microsomes, read-out: Stability
[23] = Metabolic stability in human liver microsome assessed as half life measured upto 60 mins in presence of NADPH by LC-MS/MS analysis; format: ADME; settings: liver microsomes
[24] = Metabolic stability in monkey liver microsome assessed as half life measured upto 60 mins in presence of NADPH by LC-MS/MS analysis; format: ADME, Macaca mulatta; settings: rhesus monkey, liver microsomes
[25] = Stability in human plasma assessed as parent compound remaining measured at 15 mins by LC-MS/MS analysis; format: ADME, cell-free; settings: read-out: Stability
[26] = Stability in human plasma assessed as parent compound remaining measured at 30 mins by LC-MS/MS analysis; format: ADME, cell-free; settings: read-out: Stability
[27] = Stability in dog plasma assessed as parent compound remaining measured at 15 mins by LC-MS/MS analysis; format: ADME, cell-free, Canis lupus familiaris; settings: read-out: Stability
[28] = Stability in dog plasma assessed as parent compound remaining measured at 30 mins by LC-MS/MS analysis; format: ADME, cell-free, Canis lupus familiaris; settings: read-out: Stability
[29] = Stability in dog plasma assessed as parent compound remaining measured at 60 mins by LC-MS/MS analysis; format: ADME, cell-free, Canis lupus familiaris; settings: read-out: Stability
[30] = Stability in rat plasma assessed as parent compound remaining measured at 5 mins by LC-MS/MS analysis; format: ADME, cell-free; settings: read-out: Stability
[31] = Stability in rat plasma assessed as parent compound remaining measured at 60 mins by LC-MS/MS analysis; format: ADME, cell-free; settings: read-out: Stability
[32] = Stability in mouse plasma assessed as parent compound remaining measured at 5 mins by LC-MS/MS analysis; format: ADME, cell-free; settings: read-out: Stability
[33] = Stability in mouse plasma assessed as parent compound remaining measured at 60 mins by LC-MS/MS analysis; format: ADME, cell-free; settings: read-out: Stability
[34] = Stability in mouse plasma assessed as parent compound remaining measured at 120 mins by LC-MS/MS analysis; format: ADME, cell-free; settings: read-out: Stability
[35] = Stability in human plasma assessed as half life measured upto 60 mins by LC-MS/MS analysis; format: ADME, cell-free
[36] = Stability in monkey plasma assessed as half life measured upto 60 mins by LC-MS/MS analysis; format: ADME, cell-free, Macaca mulatta; settings: rhesus monkey
[37] = Stability in rat plasma assessed as half life measured upto 60 mins by LC-MS/MS analysis; format: ADME, cell-free
[38] = biological target: Protein cereblon/Signal transducer and transcription activator 6 (Mus musculus) (UniProt P52633+Q8C7D2); assay: In vivo PROTAC activity at STAT6/CRBN in BALB/c mouse assessed as reduction in STAT6 level in lung at 200 mg/kg, ip measured at 6 hrs by Western blot analysis; format: functional, organism-based; design: scale not given: the % may be the effect or the level left

CC(C)(C)[C@H](NC(=O)c1cc2cc(C(F)(F)P(=O)(O)O)ccc2s1)C(=O)N1C[C@@H](OCCCCCC#Cc2cccc3c2CN(C2CCC(=O)NC2=O)C3=O)C[C@H]1C(=O)N1CCO[C@H](c2ccccc2)C1 (stereo partly drawn)
DC50 [1]: 1 nM
Activity [2]: No effect
Emax [3]: < 40%
DC50 [4]: 80 nM
Activity [5]: No effect
Activity [6]: Dose-dependent-effect
Activity [7]: No effect
Activity [8]: 60%
Activity [9]: 59%
Activity (PBMC [10]): inactive
Activity (PBMC [11]): inactive
Activity (PBMC [12]): inactive
Activity (PBMC [13]): inactive
Activity [14]: Active
Activity [15]: No effect
remaining at 0.25 h [16]: 98%
remaining at 0.75 h [17]: 93%
remaining at 0.25 h [18]: 83%
remaining at 0.75 h [19]: 90%
remaining at 5 min [20]: 98%
remaining at 0.5 h [21]: 94%
remaining at 0.75 h [22]: 92%
half-life [23]: > 2 h
half-life [24]: 1.05 h
remaining at 0.25 h [25]: 94%
remaining at 0.5 h [26]: 82%
remaining at 0.25 h [27]: 87%
remaining at 0.5 h [28]: 75%
remaining at 1 h [29]: 69%
remaining at 5 min [30]: 86%
remaining at 1 h [31]: 91%
remaining at 5 min [32]: 102%
remaining at 1 h [33]: 91%
remaining at 2 h [34]: 79%
half-life [35]: > 2 h
half-life [36]: > 2 h
half-life [37]: > 2 h
Activity [38]: > 90%
